The supplement of paper PMC13380429

What was measured:
Conditions in all cases: 72 h
HepG2 [1] = assay: cell viability relative to DMSO; higher = less toxic
Vero E6 [2] = assay: as above
Caco-2 [3] = assay: as above
Calu-3 [4] = assay: as above
U2OS [5] = assay: as above
HepG2 [6] = assay: relative viability EC50 (midpoint between 100% and the lowest measured viability); higher = less toxic
Vero E6 [7] = assay: as above
Caco-2 [8] = assay: as above
Calu-3 [9] = assay: as above
U2OS [10] = assay: as above
HepG2 [11] = assay: drug sensitivity score (DSS) for viability; higher = more toxic; extreme values may be limits of the assay
Vero E6 [12] = assay: as above
Caco-2 [13] = assay: as above
Calu-3 [14] = assay: as above
U2OS [15] = assay: as above

| Compound | cell viability (HepG2 [1]; 1 nM) [%] | cell viability (HepG2 [1]; 10 nM) [%] | cell viability (HepG2 [1]; 100 nM) [%] | cell viability (HepG2 [1]; 1000 nM) [%] | cell viability (HepG2 [1]; 10000 nM) [%] | cell viability (Vero E6 [2]; 1 nM) [%] | cell viability (Vero E6 [2]; 10 nM) [%] | cell viability (Vero E6 [2]; 100 nM) [%] | cell viability (Vero E6 [2]; 1000 nM) [%] | cell viability (Vero E6 [2]; 10000 nM) [%] | cell viability (Caco-2 [3]; 1 nM) [%] | cell viability (Caco-2 [3]; 10 nM) [%] | cell viability (Caco-2 [3]; 100 nM) [%] | cell viability (Caco-2 [3]; 1000 nM) [%] | cell viability (Caco-2 [3]; 10000 nM) [%] | cell viability (Calu-3 [4]; 1 nM) [%] | cell viability (Calu-3 [4]; 10 nM) [%] | cell viability (Calu-3 [4]; 100 nM) [%] | cell viability (Calu-3 [4]; 1000 nM) [%] | cell viability (Calu-3 [4]; 10000 nM) [%] | cell viability (U2OS [5]; 1 nM) [%] | cell viability (U2OS [5]; 10 nM) [%] | cell viability (U2OS [5]; 100 nM) [%] | cell viability (U2OS [5]; 1000 nM) [%] | cell viability (U2OS [5]; 10000 nM) [%] | relative viability EC50 (HepG2 [6]) [µM] | relative viability EC50 (Vero E6 [7]) [µM] | relative viability EC50 (Caco-2 [8]) [µM] | relative viability EC50 (Calu-3 [9]) [µM] | relative viability EC50 (U2OS [10]) [µM] | drug sensitivity score (HepG2 [11]) | drug sensitivity score (Vero E6 [12]) | drug sensitivity score (Caco-2 [13]) | drug sensitivity score (Calu-3 [14]) | drug sensitivity score (U2OS [15]) |
| --- | --- | --- | --- | --- | --- | --- | --- | --- | --- | --- | --- | --- | --- | --- | --- | --- | --- | --- | --- | --- | --- | --- | --- | --- | --- | --- | --- | --- | --- | --- | --- | --- | --- | --- | --- |
| O=C(O)c1ccc(S(=O)(=O)N(Cl)Cl)cc1 [halazone] | 97.1 | 94.1 | 110 | 107 | 100 | 107 | 108 | 106 | 97 | 96.7 | 112 | 93.5 | 84.2 | 90.1 | 90.8 | 106 | 99.6 | 95.4 | 94.7 | 107 | 101 | 95.6 | 98.7 | 95.6 | 102 | > 10 | > 10 | > 10 | > 10 | > 10 | 0 | 0 | 3.5 | 0 | 0 |
| CCc1ccc(/C=C/C(=O)Nc2ccc(C(C)=O)cc2)o1 [heclin] | 93.6 | 95.6 | 88.5 | 92.3 | 85.6 | 102 | 103 | 98.9 | 99.9 | 103 | 91.1 | 102 | 91.4 | 95.2 | 88.4 | 98.5 | 106 | 95 | 99.6 | 87.3 | 93.2 | 98.6 | 96.3 | 94.2 | 90.3 | > 10 | > 10 | > 10 | > 10 | > 10 | 0.4 | 0 | 0 | 0.1 | 0 |
| CC(O)COC[C@H]1O[C@@H]2O[C@H]3[C@H](O)[C@@H](O)[C@@H](O[C@H]4[C@H](O)[C@@H](O)[C@@H](O[C@H]5[C@H](O)[C@@H](O)[C@@H](O[C@H]6[C@H](O)[C@@H](O)[C@@H](O[C@H]7[C@H](O)[C@@H](O)[C@@H](O[C@H]8[C@H](O)[C@@H](O)[C@@H](O[C@H]1[C@H](O)[C@H]2O)O[C@@H]8COCC(C)O)O[C@@H]7COCC(C)O)O[C@@H]6COCC(C)O)O[C@@H]5COCC(C)O)O[C@@H]4COCC(C)O)O[C@@H]3COCC(C)O (stereo partly drawn) [hydroxypropyl-beta-cyclodextrin] | 98.6 | 97.5 | 98.3 | 95.9 | 98.2 | 104 | 96.1 | 102 | 101 | 103 | 92.3 | 97.1 | 103 | 100 | 95.7 | 100 | 91.5 | 94.8 | 98.8 | 100 | 97.5 | 98.5 | 104 | 98.2 | 98.4 | > 10 | > 10 | > 10 | > 10 | > 10 | 0 | 0 | 0 | 0 | 0 |
| CSCC1CN(/N=C/c2ccc([N+](=O)[O-])o2)C(=O)O1 (stereo not given) [inimur] | 100 | 93.8 | 96.5 | 94.3 | 93 | 96.6 | 96.4 | 89.7 | 89 | 95 | 90.6 | 97.7 | 92.7 | 94.5 | 89.4 | 89.9 | 97.4 | 96.8 | 104 | 101 | 98.2 | 101 | 95.8 | 101 | 105 | > 10 | > 10 | > 10 | > 10 | > 10 | 0 | 0 | 0 | 0 | 0 |
| CN[C@@H]1[C@@H](O)[C@@H](O[C@@H]2[C@@H](O)[C@H](O[C@H]3O[C@H](CN)[C@@H](O)[C@H](O)[C@H]3O)[C@@H](N)C[C@H]2NC(=O)[C@@H](O)CN)OC[C@]1(C)O [isepamicin] | 98.8 | 95.8 | 96.6 | 107 | 103 | 91.5 | 98.3 | 96.6 | 95.5 | 101 | 89.7 | 97 | 89.1 | 98 | 91.8 | 96.4 | 90.7 | 91.5 | 92.6 | 99.3 | 97.6 | 100 | 94.6 | 99.1 | 102 | > 10 | > 10 | > 10 | > 10 | > 10 | 0 | 0 | 0 | 0 | 0 |
